Source: patent publication US20160333006A1, “ARYL LACTA KINASE INHIBITORS” (Bristol-Myers Squibb Company, priority 2014, published 2016)

Molecular target: T1, GST-Xa-hAAK1 (Homo sapiens, UniProt Q2M2I8)
T1 construct: made in house
Assay: AAK1 kinase assay
Assay type: biochemical
Details: ATP 22 μM; given as IC50 range
Protocol: The assays were performed in U-bottom 384-well plates. […] The reactions were initiated by the combination of bacterially expressed, GST-Xa-hAAK1 with substrates and test compounds. The reactions were incubated at room temperature for 3 hours and terminated by adding 60 μl of 35 mM EDTA buffer to each sample. The reactions were analyzed on the Caliper LabChip 3000 (Caliper, Hopkinton, Mass.) by electrophoretic separation of the fluorescent substrate and phosphorylated product. […] Compounds were dissolved at 10 mM in dimethylsulfoxide (DMSO) and evaluated at eleven concentrations. IC50 values were derived by non-linear regression analysis.

T1 sequence (Q2M2I8 whole entry): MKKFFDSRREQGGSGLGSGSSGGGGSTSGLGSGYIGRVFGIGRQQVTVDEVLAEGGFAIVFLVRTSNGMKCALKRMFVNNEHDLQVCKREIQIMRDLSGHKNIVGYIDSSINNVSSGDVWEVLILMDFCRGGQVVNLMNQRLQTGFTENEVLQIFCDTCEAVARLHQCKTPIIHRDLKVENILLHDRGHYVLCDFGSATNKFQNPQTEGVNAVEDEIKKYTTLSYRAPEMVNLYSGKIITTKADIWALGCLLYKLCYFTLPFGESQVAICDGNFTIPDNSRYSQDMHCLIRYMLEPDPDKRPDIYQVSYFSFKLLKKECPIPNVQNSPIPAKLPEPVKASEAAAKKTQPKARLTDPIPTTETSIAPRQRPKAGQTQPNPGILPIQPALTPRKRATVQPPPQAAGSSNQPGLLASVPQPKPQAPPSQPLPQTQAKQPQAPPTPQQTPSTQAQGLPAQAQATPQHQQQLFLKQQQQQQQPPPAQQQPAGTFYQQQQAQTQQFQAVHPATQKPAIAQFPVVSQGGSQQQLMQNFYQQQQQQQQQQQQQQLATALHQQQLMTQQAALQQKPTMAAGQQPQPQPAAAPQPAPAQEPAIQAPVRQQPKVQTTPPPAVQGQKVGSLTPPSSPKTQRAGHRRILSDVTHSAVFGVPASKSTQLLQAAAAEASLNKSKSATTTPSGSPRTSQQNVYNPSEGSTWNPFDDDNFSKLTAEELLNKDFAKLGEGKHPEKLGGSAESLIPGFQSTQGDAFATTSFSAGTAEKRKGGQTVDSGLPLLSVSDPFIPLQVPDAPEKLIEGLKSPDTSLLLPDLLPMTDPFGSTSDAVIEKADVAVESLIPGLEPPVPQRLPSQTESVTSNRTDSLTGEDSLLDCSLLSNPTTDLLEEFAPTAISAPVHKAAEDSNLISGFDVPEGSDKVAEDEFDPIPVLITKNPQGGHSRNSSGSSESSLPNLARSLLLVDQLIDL

Row | SMILES | IC50 [nM]
1 | Cc1nccc2c1c(=O)n(C)c1cc(OCC(N)CC(C)C(F)(F)F)ccc21 (single isomer, unassigned) [Example 87] | 1 to 10
2 | Cc1nccc2c1c(=O)n(C)c1cc(OCC(N)CC(C)C(F)(F)F)ccc21 (single isomer, unassigned) [Example 88] | 1 to 10
3 | Cn1c(=O)c2cnccc2c2ccc(OCC(N)CC(F)(F)F)cc21 (single isomer, unassigned) [Example 135, 8-(2-amino-4,4,4-trifluorobutoxy)-6-methylbenzo[c][2,7]naphthyridin-5(6H)-one] | 10 to 100
4 | Cn1c(=O)c2cnccc2c2ccc(OCC(N)CC(F)(F)F)cc21 (single isomer, unassigned) [Example 136, 8-(2-amino-4,4,4-trifluorobutoxy)-6-methylbenzo[c][2,7]naphthyridin-5(6H)-one] | 1 to 10
5 | Cc1cc2c3ccncc3c(=O)n(C)c2cc1OC[C@@H](N)CC(C)C [Example 4, (S)-8-((2-amino-4-methylpentyl)oxy)-6,9-dimethylbenzo[c][2,7]naphthyridin-5(6H)-one] | 1 to 10
6 | CC(C)C[C@H](N)COc1cc2c(cc1C#N)c1ccncc1c(=O)n2C [Example 5, (S)-8-((2-amino-4-methylpentyl)oxy)-6-methyl-5-oxo-5,6 dihydrobenzo[c][2,7]naphthyridine-9-carbonitrile] | 1 to 10
7 | CC(C)C[C@H](N)COc1c(Cl)cc2c3ccncc3c(=O)n(C)c2c1Cl [Example 10, (S)-8-((2-amino-4-methylpentyl)oxy)-7,9-dichloro-6-methylbenzo[c][2,7]naphthyridin-5(6H) one] | 10 to 100
8 | Cc1nccc2c1c(=O)n(C)c1cc(OC[C@@H](N)CC(C)C)c(C(F)F)cc21 [Example 27, (S)-8-((2-amino-4-methylpentyl)oxy)-9-(difluoromethyl)-4,6-dimethylbenzo[c][2,7]naphthyridin-5(6H)-one] | < 1
9 | CC(C)C[C@@H](COc1ccc2c3ccncc3c(=O)n(C)c2c1)N(C)C [Example 39, (S)-8-((2-(dimethylamino)-4-methylpentyl)oxy)-6-methylbenzo[c][2,7]naphthyridin-5(6H)-one] | 10 to 100
10 | COc1nccc2c1c(=O)n(C)c1cc(OC[C@@H](N)CC(C)C)ccc21 [Example 42, (S)-8-(2-amino-4-methylpentyloxy)-4-methoxy-6-methylbenzo[c][2,7]naphthyridin-5(6H)-one] | 100 to 2000
11 | CC(C)C[C@H](N)COc1cc2c(cc1Cl)c1ccncc1c(=O)n2C [Example 43, (S)-8-((2-amino-4-methylpentyl)oxy)-9-chloro-6-methylbenzo[c][2,7]naphthyridin-5(6H)-one] | 1 to 10
12 | Cc1nccc2c1c(=O)[nH]c1cc(OC[C@@H](N)CC(C)C)c(Br)cc12 [Example 49, (S)-8-(2-amino-4-methylpentyloxy)-9-bromo-4-methylbenzo[c][2,7]naphthyridin-5(6H)-one] | 1 to 10
13 | CC(C)C[C@H](N)COc1cc2c(cc1-c1ccc(F)cc1)c1ccncc1c(=O)n2C [Example 51, (S)-8-((2-amino-4-methylpentyl)oxy)-9-(4-fluorophenyl)-6 methylbenzo[c][2,7]naphthyridin-5(6H)-one] | 100 to 2000
14 | CN[C@H](COc1cc2c(cc1C#N)c1ccnc(C)c1c(=O)n2C)CC(C)C [Example 65, (S)-4,6-dimethyl-8-(4-methyl-2-(methylamino)pentyloxy)-5-oxo-5,6-dihydrobenzo[c][2,7]naphthyridine-9-carbonitrile] | < 1
15 | Cc1nccc2c1c(=O)[nH]c1cc(OC[C@@H](N)CC(C)C)ccc12 [Example 77, (S)-8-(2-amino-4-methylpentyloxy)-4-methylbenzo[c][2,7]naphthyridin-5(6H)-one] | 1 to 10
16 | COCCn1c(=O)c2c(C)nccc2c2cc(Cl)c(OC[C@@H](N)CC(C)C)cc21 [Example 79, (S)-8-((2-amino-4-methylpentyl)oxy)-9-chloro-6-(2-methoxyethyl)-4-methylbenzo[c][2,7]naphthyridin-5(6H)-one] | 1 to 10
17 | Cc1nccc2c1c(=O)n(C)c1c(F)c(OC[C@@H](N)CC(C)C)ccc21 [Example 81, (S)-8-(2-amino-4-methylpentyloxy)-7-fluoro-4,6-dimethylbenzo[c][2,7]naphthyridin-5(6H)-one] | 100 to 2000
18 | COC(=O)c1cc2c3ccnc(C)c3c(=O)n(C)c2cc1OC[C@@H](N)CC(C)C [Example 84, (S)-methyl 8-((2-amino-4-methylpentyl)oxy)-4,6-dimethyl-5-oxo-5,6-dihydrobenzo[c][2,7]naphthyridine-9-carboxylate] | 1 to 10
19 | CC(C)C[C@H](N)COc1ccc2c3c(F)cncc3c(=O)n(C)c2c1 [Example 85, (S)-8-((2-amino-4-methylpentyl)oxy)-1-fluoro-6-methylbenzo[c][2,7]naphthyridin-5(6H)-one] | 10 to 100

Row | SMILES | IC50 [nM]
20 | Cc1nccc2c1c(=O)n(C)c1cc(OC[C@@H](N)CC(C)C)c(C(N)=O)cc21 [Example 94, (S)-8-((2-amino-4-methylpentyl)oxy)-4,6-dimethyl-5-oxo-5,6-dihydrobenzo[c][2,7]naphthyridine-9-carboxamide] | 10 to 100
21 | COc1cncc2c(=O)n(C)c3cc(OC[C@@H](N)CC(C)C)ccc3c12 [Example 98, (S)-8-((2-amino-4-methylpentyl)oxy)-1-methoxy-6-methylbenzo[c][2,7]naphthyridin-5(6H)-one] | 100 to 2000
22 | COc1c(OC[C@@H](N)CC(C)C)ccc2c1[nH]c(=O)c1c(C)nccc12 [Example 99, (S)-8-(2-amino-4-methylpentyloxy)-7-methoxy-4-methylbenzo[c][2,7]naphthyridin-5(6H)-one] | 100 to 2000
23 | COCc1cc2c3ccnc(C)c3c(=O)n(C)c2cc1OC[C@@H](N)CC(C)C [Example 104, (S)-8-(2-amino-4-methylpentyloxy)-9-(methoxymethyl)-4,6-dimethylbenzo[c][2,7]naphthyridin-5(6H)-one] | 10 to 100
24 | Cc1nccc2c1c(=O)n(C)c1c(F)c(OC[C@@H](N)CC(C)C)c(Cl)cc21 [Example 107, (S)-8-((2-amino-4-methylpentyl)oxy)-9-chloro-7-fluoro-4,6-dimethylbenzo[c][2,7]naphthyridin-5(6H)-one] | 1 to 10
25 | CC(C)Cc1cc2c3ccncc3c(=O)n(C)c2cc1OC[C@@H](N)CC(C)C [Example 110, (S)-8-((2-amino-4-methylpentyl)oxy)-9-isobutyl-6-methylbenzo[c][2,7]naphthyridin-5(6H)-one] | 10 to 100
26 | Cn1c(=O)c2cnccc2c2ccc(OCC(N)CCC(F)(F)F)cc21 (centres unmarked) [Example 111, 8-((2-amino-5,5,5-trifluoropentyl)oxy)-6-methylbenzo[c][2,7]naphthyridin-5(6H)-one] | 1 to 10
27 | Cn1c(=O)c2cnccc2c2ccc(OCC(N)CCC(F)(F)F)cc21 (centres unmarked) [Example 112, 8-((2-amino-5,5,5-trifluoropentyl)oxy)-6-methylbenzo[c][2,7]naphthyridin-5(6H)-one] | 1 to 10
28 | Cc1nccc2c1c(=O)n(C)c1cc(OCC(N)CCC(F)(F)F)ccc21 (centres unmarked) [Example 123, 8-((2-amino-5,5,5-trifluoropentyl)oxy)-4,6-dimethylbenzo[c][2,7]naphthyridin-5(6H)-one] | 10 to 100
29 | Cc1nccc2c1c(=O)n(C)c1cc(OCC(N)CCC(F)(F)F)c(Cl)cc21 (centres unmarked) [Example 124, 8-((2-amino-5,5,5-trifluoropentyl)oxy)-9-chloro-4,6-dimethylbenzo[c][2,7]naphthyridin-5(6H)-one] | < 1
30 | Cc1nccc2c1c(=O)n(C)c1cc(OC[C@@H](N)CC(C)C)c(C3CC3)cc21 [Example 125, (S)-8-((2-amino-4-methylpentyl)oxy)-9-cyclopropyl-4,6-dimethylbenzo[c][2,7]naphthyridin-5(6H)-one] | 1 to 10
31 | Cc1nccc2c1c(=O)n(C)c1cc(OCC(N)CCC(F)(F)F)c(Br)cc21 (centres unmarked) [Example 128, 8-((2-amino-5,5,5-trifluoropentyl)oxy)-9-bromo-4,6-dimethylbenzo[c][2,7]naphthyridin-5(6H)-one] | < 1
32 | Cc1nccc2c1c(=O)n(C)c1cc(OC[C@@H](N)CC(C)C)c(C(C)C)cc21 [Example 130, (S)-8-((2-amino-4-methylpentyl)oxy)-9-isopropyl-4,6-dimethylbenzo[c][2,7]naphthyridin-5(6H)-one] | 10 to 100
33 | COCCn1c(=O)c2c(C)nccc2c2cc(Br)c(OC[C@@H](N)CC(C)C)cc21 [Example 131, (S)-8-((2-amino-4-methylpentyl)oxy)-9-bromo-6-(2-methoxyethyl)-4-methylbenzo[c][2,7]naphthyridin-5(6H)-one] | 10 to 100
34 | Cc1nccc2c1c(=O)n(CCO)c1cc(OC[C@@H](N)CC(C)C)c(Cl)cc21 [Example 132, (S)-8-((2-amino-4-methylpentyl)oxy)-9-chloro-6-(2-hydroxyethyl)-4-methylbenzo[c][2,7]naphthyridin-5(6H)-one] | < 1
35 | Cc1nccc2c1c(=O)n(C)c1c(F)c(OC[C@@H](N)CC(C)C)c(Br)cc21 [Example 134, (S)-8-((2-amino-4-methylpentyl)oxy)-9-bromo-7-fluoro-4,6-dimethylbenzo[c][2,7]naphthyridin-5(6H)-one] | 10 to 100
36 | Cc1nccc2c1c(=O)n(C)c1cc(OCC(N)CC(F)(F)F)c(Br)cc21 (centres unmarked) [Example 137, 8-(2-amino-4,4,4-trifluorobutoxy)-9-bromo-4,6-dimethylbenzo[c][2,7]naphthyridin-5(6H)-one] | 1 to 10
37 | COc1ccc2c3ccnc(C)c3c(=O)n(C)c2c1 [Example 144, 8-methoxy-4,6-dimethylbenzo[c][2,7]naphthyridin-5(6H)-one] | 100 to 2000
38 | CC(C)NCC(O)COc1ccc2c3ccncc3c(=O)n(C)c2c1 (centres unmarked) [Example 146, 8-(2-hydroxy-3-(isopropylamino)propoxy)-6-methylbenzo[c][2,7]naphthyridin-5(6H)-one] | 100 to 2000
